Assay results reported in patent publication US12508328B2, “Bio-activated reporters to visualize, in real time, specific gene therapy products” (Northwestern University, priority 2019, dated 2025).

Tests used:
[1] = Terbium(III) luminescence: determination of q; format: physicochemical; details: for q (H2O): pure water; for τD2O: D2O; for τH2O: H2O
Experimental: The q number in the absence and presence of CO32− was determined using TbIII analogues (5a′, 5b′, 5c′, and 11′). Given the similarities in chemistry amongst the lanthanides, TbIII luminescence is a convenient and established method for determining the coordination environment in corresponding GdIII chelates. The narrow […] emission at 543 nm and the relatively long lived 0.4 ms excited state lifetime for Tb(H2O)x facilitates accurate assessment of the inner-coordination sphere, differentiating between coordination of OH, OD, NH, and ND oscillators. 38 Luminescent decay curves were fit to the empirically derived Horrock's equation (Eq. 2). It was expected that the ortho position would have the lowest q in the presence of CO32−, creating a “dark” state with the lowest relaxivity.
The number of water molecules directly coordinated to the lanthanide center (q), was determined for each of the TbIII analogues 5a′-c′ (see Table 1), 10a′-d′ (Table 2), and 11′ in MilliQ water and MOPS/carbonate buffer (10 mm MOPS, 24 mm NaHCO3, pH 7.4).
The monoexponential fluorescence decay of an ≈1 mm solution of each complex was determined using a Hitachi F4500 fluorometer (Schaumburg, IL). An excitation wavelength of 308 nm and an emission wavelength of […] were used, and 25 scans were acquired and averaged for each solution. The averaged data was fit with a monoexponential decay function, and the time constant (t) for each solution was determined in triplicate. The fluorescence decay curves of the complexes were measured in both H2O and D2O, and in both buffer and deuterated buffer, obtained by lyophilizing and re-suspending the buffer in D2O three times (FIG. 17A-E). The q values were calculated using the empirically derived Horrock's equation for Tb(III) (Eq. 2): […]

[2] = Relaxivity (1.4 T) in MOPS and MOPS/CO3^2−; format: physicochemical; details: intermolecular series 5a-c, 37° C.
Experimental: While measurements of q indicate how well an agent can restrict water access to the GdIII center, the most important property for a bio-activated contrast agent is the change in relaxivity upon enzymatic cleavage (r1). To evaluate the signal change in the presence of CO32−, relaxivities of the intermolecular activated agents were measured in two different buffer conditions, the non-coordinating buffer MOPS and MOPS/CO32−.
T1 relaxation times were obtained for 5a-c (FIG. 13), and complexes 10a-d (FIG. 14), and 11 at 37° C. at 60 MHz (1.4 T) on a Bruker mq60 minispec spectrometer (Billerica, MA). Three 1 mM solutions of each complex were prepared in four different buffer conditions 1) 10 mm 3-(N-morpholino)propanesulfonic acid (MOPS), 100 mm NaCl, pH 7.4, 2) 10 mm MOPS, 24 mm NaHCO3, 100 mm NaCl, pH 7.4, 3) Dulbecco's Phosphate Buffer (DPBS) pH 7.3 Life Technologies, and 4) b-galactosidase enzyme assay buffer, 200 mm sodium phosphate, 100 mm bmercaptoethanol, 2 mm MgCl2, pH 7.3 (FIG. 15). Three sets of five serial dilutions (about 1 mm, 0.5 mm, 0.25 mm, 0.125 mm and 0.0625 mm) were prepared for each complex. T1 relaxation rates were measured using an inversion recovery pule sequence (t1_ir_mb) with a 10 ms first pulse separation, recycle delay and final pulse separation ≥5 T1. T1 relaxation rates were plotted as a function of GdIII concentrations as determined by ICP-MS, r1/r2 was obtained from linear fit of concentration vs. T1 as described in Equation (1).

β-galactosidase = target: T1, β-galactosidase (Escherichia coli, UniProt P00722); format: biochemical; details: 25° C., TES buffer, 1 mM MgCl2, 150 mM NaCl; for Kcat: 420 nm; for Km: nitro-phenol absorbance 420 nm
T1 construct: purchased Sigma Aldrich
Experimental: Catalytic efficiencies for five substrates, 5a-c, ONPG, and PNPG were evaluated by UV-vis spectroscopy (Table 3). ONPG and PNPG are literature standards that were used to ensure the assay was performed adequately and to serve as benchmarks of activation kinetics in the absence of the GdIII chelate. […] Catalytic efficiency is directly related to the imaging window wherein activation to the r1, on state is competing with clearance.
Enzyme activation kinetics were determined by the method of initial rates for compounds 5a-c via the appearance of the nitrophenol byproduct of activation. The characteristic absorption was monitored at 420 nm. Concentrations of substrate used were 0, 0.05, 0.1, 0.12, 0.15, 0.3, 0.4, 0.5, 0.75, 1, and 2 mM. Each concentration was measured in triplicate and exact concentrations were measured by ICP-MS (see Table 2).

[3] = 10a′-d′, Horrock's equation, MOPS/CO3^2− buffer pH 7.4
[4] = 10a′-d′, MOPS/CO3^2− buffer pH 7.4
[5] = 10a′-d′, deuterated MOPS/CO3^2− buffer pH 7.4
[6] = Tb(III) analogues 10a′-d′, emission 543 nm
[7] = Horrock's equation for TbIII, MOPS/CO32- buffer pH 7.4
[8] = Tb(III) analogues, emission 543 nm, ambient temperature
[9] = deuterated MOPS/CO32- buffer pH 7.4

T1 sequence (P00722 2-1024): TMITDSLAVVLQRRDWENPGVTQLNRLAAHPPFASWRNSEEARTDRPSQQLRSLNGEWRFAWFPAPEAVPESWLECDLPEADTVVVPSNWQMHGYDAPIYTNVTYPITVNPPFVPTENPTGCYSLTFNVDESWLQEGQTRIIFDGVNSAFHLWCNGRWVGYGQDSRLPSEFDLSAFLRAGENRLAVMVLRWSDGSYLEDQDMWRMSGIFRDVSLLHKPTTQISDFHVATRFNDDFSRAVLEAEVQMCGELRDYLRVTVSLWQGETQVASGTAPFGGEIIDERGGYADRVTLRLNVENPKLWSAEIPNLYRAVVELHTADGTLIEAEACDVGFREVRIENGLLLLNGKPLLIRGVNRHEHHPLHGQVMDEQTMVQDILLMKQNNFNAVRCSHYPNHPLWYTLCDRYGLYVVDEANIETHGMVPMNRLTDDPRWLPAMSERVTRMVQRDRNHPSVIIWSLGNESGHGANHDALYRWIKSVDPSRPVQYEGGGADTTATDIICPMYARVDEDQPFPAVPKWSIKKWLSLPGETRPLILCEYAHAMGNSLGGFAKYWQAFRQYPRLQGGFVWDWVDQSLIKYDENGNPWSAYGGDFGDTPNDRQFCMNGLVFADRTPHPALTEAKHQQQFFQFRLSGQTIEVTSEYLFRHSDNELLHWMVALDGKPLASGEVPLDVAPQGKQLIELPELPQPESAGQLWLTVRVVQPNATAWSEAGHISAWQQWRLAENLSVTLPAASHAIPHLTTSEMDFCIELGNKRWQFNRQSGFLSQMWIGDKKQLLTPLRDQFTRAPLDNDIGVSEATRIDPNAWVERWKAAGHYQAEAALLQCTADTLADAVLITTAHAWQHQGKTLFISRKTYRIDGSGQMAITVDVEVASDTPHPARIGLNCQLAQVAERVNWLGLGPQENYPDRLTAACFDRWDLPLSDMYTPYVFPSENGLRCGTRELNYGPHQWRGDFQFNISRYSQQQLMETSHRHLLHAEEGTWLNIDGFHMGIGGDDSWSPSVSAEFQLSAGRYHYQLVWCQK

Row | Compound | q (buffer) [1, 3] | q (H2O) ([1]; 10a′-d′, Horrock's equation) | τHbuf [1, 4] | τDbuf [1, 5] | τD2O ([1]; Tb(III) analogues 10a′-d′) | τH2O [1, 6] | Kcat (β-galactosidase) | Km (β-galactosidase) | also measured
1 | CCOC(=O)CCCCCCCNc1cc(COC(=O)NCCN2CCN(CC(=O)[O-])CCN(CC(=O)[O-])CCN(CC(=O)[O-])CC2)ccc1O[C@@H]1O[C@H](CO)[C@H](O)[C@H](O)[C@H]1O.[Tb+3] [10d′, Terbium(III)-1-(4-(2-(1-(4,7,10-triscarboxymethyl-(1,4,7,10tetraazacyclododecyl)))ethylcarbamoyloxymethyl)-2-((8-ethoxy-8-oxooctyl)amino)phenyl)-β-D-galactopyranose] | 0.1 | 0.1 | 1.9(7) ms | 2.0(2) ms | 2.2(6) ms | 1.9(3) ms | – | – | –
2 | O=C([O-])CN1CCN(CCNC(=O)OCc2ccc([N+](=O)[O-])c(O[C@@H]3O[C@H](CO)[C@H](O)[C@H](O)[C@H]3O)c2)CCN(CC(=O)[O-])CCN(CC(=O)[O-])CC1.[Gd+3] [5b, Gadolinium(III)-1-(5-(2-(1-(4,7,10-triscarboxymethyl-(1,4,7,10tetraazacyclododecyl)))ethylcarbamoyloxymethyl)-2-nitrophenyl)-β-D-galactopyranose] | – | – | – | – | – | – | 679 +/− 135.8 S−1 | 791 µM | Δr1 relative to the cleaved complex 11 (percent change in relaxivity, dark to bright) [2]: 26%
3 | O=[N+]([O-])c1ccccc1O[C@@H]1O[C@H](CO)[C@H](O)[C@H](O)[C@H]1O [ONPG, ortho-nitrophyenyl-[…]-galactoside, reference compound] | – | – | – | – | – | – | 600 +/− 29.7 S−1 | 120 µM | –
4 | CCOC(=O)CNc1cc(COC(=O)NCCN2CCN(CC(=O)[O-])CCN(CC(=O)[O-])CCN(CC(=O)[O-])CC2)ccc1O[C@@H]1O[C@H](CO)[C@H](O)[C@H](O)[C@H]1O.[Tb+3] [10a′, Terbium(III)-1-(4-(2-(1-(4,7,10-triscarboxymethyl-(1,4,7,10tetraazacyclododecyl)))ethylcarbamoyloxymethyl)-2-((2-ethoxy-2-oxoethyl)amino)phenyl)-β-D-galactopyranose] | 0.3 | 1.3 | 1.7(2) ms | 2.1(8) ms | 2.1(0) ms | 1.1(4) ms | – | – | –
5 | O=C([O-])CN1CCN(CCNC(=O)OCc2cc([N+](=O)[O-])ccc2O[C@@H]2O[C@H](CO)[C@H](O)[C@H](O)[C@H]2O)CCN(CC(=O)[O-])CCN(CC(=O)[O-])CC1.[Tb+3] [5a′, Terbium(III)-1-(2-(2-(1-(4,7,10-triscarboxymethyl-(1,4,7,10tetraazacyclododecyl)))ethylcarbamoyloxymethyl)-4-nitrophenyl)-β-D-galactopyranose] | – | – | – | – | – | – | – | – | q (buffer) [1, 7]: 0.2; q (H2O) ([1]; Horrock's equation for TbIII): 1.1; τHbuf ([1]; MOPS/CO32- buffer pH 7.4): 1.7(6) ms; τD2O [1, 8]: 2.2(3) ms; τH2O [1, 8]: 1.2(8) ms; τDbuf [1, 9]: 2.2(0) ms
6 | O=[N+]([O-])c1ccc(O[C@@H]2O[C@H](CO)[C@H](O)[C@H](O)[C@H]2O)cc1 [PNPG, para-nitrophyenyl-[…]-galactoside, reference compound] | – | – | – | – | – | – | 276 +/− 16.9 S−1 | 61 µM | –
7 | O=C([O-])CN1CCN(CCNC(=O)OCc2cc([N+](=O)[O-])ccc2O[C@@H]2O[C@H](CO)[C@H](O)[C@H](O)[C@H]2O)CCN(CC(=O)[O-])CCN(CC(=O)[O-])CC1.[Gd+3] [5a, Gadolinium(III)-1-(2-(2-(1-(4,7,10-triscarboxymethyl-(1,4,7,10tetraazacyclododecyl)))ethylcarbamoyloxymethyl)-4-nitrophenyl)-β-D-galactopyranose] | – | – | – | – | – | – | 637 +/− 21.9 S−1 | 272 µM | Δr1 relative to the cleaved complex 11 (percent change in relaxivity, dark to bright) [2]: negative
8 | O=C([O-])CN1CCN(CCNC(=O)OCc2ccc(O[C@@H]3O[C@H](CO)[C@H](O)[C@H](O)[C@H]3O)c([N+](=O)[O-])c2)CCN(CC(=O)[O-])CCN(CC(=O)[O-])CC1.[Tb+3] [5c′, Terbium(III)-1-(4-(2-(1-(4,7,10-triscarboxymethyl-(1,4,7,10tetraazacyclododecyl)))ethylcarbamoyloxymethyl)-2-nitrophenyl)-β-D-galactopyranose] | – | – | – | – | – | – | – | – | q (buffer) [1, 7]: 0; q (H2O) ([1]; Horrock's equation for TbIII): 0.7; τHbuf ([1]; MOPS/CO32- buffer pH 7.4): 1.0(2) ms; τD2O [1, 8]: 1.1(1) ms; τH2O [1, 8]: 0.8(9) ms; τDbuf [1, 9]: 1.0(7) ms
9 | CCOC(=O)CCCCCNc1cc(COC(=O)NCCN2CCN(CC(=O)[O-])CCN(CC(=O)[O-])CCN(CC(=O)[O-])CC2)ccc1O[C@@H]1O[C@H](CO)[C@H](O)[C@H](O)[C@H]1O.[Tb+3] [10c′, Terbium(III)-1-(4-(2-(1-(4,7,10-triscarboxymethyl-(1,4,7,10tetraazacyclododecyl)))ethylcarbamoyloxymethyl)-2-((6-ethoxy-6-oxohexyl)amino)phenyl)-β-D-galactopyranose] | 0.1 | 0.1 | 1.9(3) ms | 2.2(6) ms | 2.2(9) ms | 1.8(9) ms | – | – | –
10 | CCOC(=O)CCCNc1cc(COC(=O)NCCN2CCN(CC(=O)[O-])CCN(CC(=O)[O-])CCN(CC(=O)[O-])CC2)ccc1O[C@@H]1O[C@H](CO)[C@H](O)[C@H](O)[C@H]1O.[Tb+3] [10b′, Terbium(III)-1-(4-(2-(1-(4,7,10-triscarboxymethyl-(1,4,7,10tetraazacyclododecyl)))ethylcarbamoyloxymethyl)-2-((4-ethoxy-4-oxobutyl)amino)phenyl)-β-D-galactopyranose] | 0 | 0.5 | 1.8(9) ms | 1.8(8) ms | 2.2(6) ms | 1.6(3) ms | – | – | –
11 | O=C([O-])CN1CCN(CCNC(=O)OCc2ccc([N+](=O)[O-])c(O[C@@H]3O[C@H](CO)[C@H](O)[C@H](O)[C@H]3O)c2)CCN(CC(=O)[O-])CCN(CC(=O)[O-])CC1.[Tb+3] [5b′, Terbium(III)-1-(5-(2-(1-(4,7,10-triscarboxymethyl-(1,4,7,10tetraazacyclododecyl)))ethylcarbamoyloxymethyl)-2-nitrophenyl)-β-D-galactopyranose] | – | – | – | – | – | – | – | – | q (buffer) [1, 7]: 0; q (H2O) ([1]; Horrock's equation for TbIII): 0.4; τHbuf ([1]; MOPS/CO32- buffer pH 7.4): 1.4(2) ms; τD2O [1, 8]: 1.6(6) ms; τH2O [1, 8]: 1.3(0) ms; τDbuf [1, 9]: 1.5(4) ms
12 | O=C([O-])CN1CCN(CCNC(=O)OCc2ccc(O[C@@H]3O[C@H](CO)[C@H](O)[C@H](O)[C@H]3O)c([N+](=O)[O-])c2)CCN(CC(=O)[O-])CCN(CC(=O)[O-])CC1.[Gd+3] [5c, Gadolinium(III)-1-(4-(2-(1-(4,7,10-triscarboxymethyl-(1,4,7,10tetraazacyclododecyl)))ethylcarbamoyloxymethyl)-2-nitrophenyl)-β-D-galactopyranose] | – | – | – | – | – | – | 765 +/− 37.8 S−1 | 129 µM | Δr1 relative to the cleaved complex 11 (percent change in relaxivity, dark to bright) [2]: negative
